Experimental data from patent US12622948B2 (SUN PHARMACEUTICAL INDUSTRIES LIMITED, priority 2020, dated 2026).
Marks after values point to notes of the source that are not given here.

Columns and labels:
[1] = tested on: type 2 diabetic mouse (db/db) model; test: Efficacy study in db/db mice at 3 and 20 nM/kg dose (blood glucose, body weight, food intake); type: in vivo
Protocol: The effect of compounds of present invention on blood glucose, food intake and body weight was studied on mice. This study was performed in type 2 diabetic mouse (db/db) model. […] Baseline blood glucose was measured from all the animals. All animals were administered with test items subcutaneously. […] Delta blood glucose (mM) was calculated. Body weight changes and cumulative food consumption was measured at 72 hr post treatment.

[2] = tested on: type 2 diabetic mouse (db/db) model; test: Efficacy study in db/db mice at 10 nM/kg dose (blood glucose, body weight, food intake); type: in vivo
Protocol: The effect of compounds of present invention on blood glucose, food intake and body weight was studied in mice. This study was performed in a type 2 diabetic mouse (db/db) model. […] Baseline blood glucose was measured from all the animals. […] All the animals were administered with test items subcutaneously. […] Delta blood glucose (mM) was calculated.

[3] = Study 1, db/db mice, 10 nM/kg s.c.
[4] = Study 1, db/db mice, 10 nM/kg s.c., 48 hr
[5] = Study 1, db/db mice, 10 nM/kg s.c., 96 hr
[6] = Study 2, db/db mice, 10 nM/kg s.c. single dose
[7] = Study 2, db/db mice, 10 nM/kg s.c. single dose, 48 hr
[8] = Study 2, db/db mice, 10 nM/kg s.c. single dose, 96 hr
[9] = db/db mice, 10 nM/kg s.c., vs diabetic control

CCC[C@H](NC(=O)[C@@H](NC(=O)[C@H](CO)NC(=O)[C@H](Cc1ccc(O)cc1)NC(=O)[C@H](CC(=O)O)NC(=O)[C@H](CO)NC(=O)[C@@H](NC(=O)[C@H](Cc1ccccc1)NC(=O)[C@@H](NC(=O)CNC(=O)[C@H](CCC(=O)O)NC(=O)C(C)(C)NC(=O)[C@@H](N)Cc1ccc(O)cc1)[C@@H](C)O)[C@@H](C)O)[C@@H](C)CC)C(=O)N[C@@H](CC(C)C)C(=O)N[C@@H](CC(=O)O)C(=O)N[C@@H](CCCCN)C(=O)N[C@H](C(=O)N[C@@H](C)C(=O)N[C@@H](CCC(N)=O)C(=O)N[C@@H](CCCCNC(=O)COCCOCCNC(=O)C(C)(C)NC(=O)CC[C@H](NC(=O)CCCCCCCCCCCCCCCCCCC(=O)O)C(=O)O)C(=O)N[C@@H](C)C(=O)N[C@@H](Cc1ccccc1)C(=O)N[C@H](C(=O)N[C@@H](CCC(N)=O)C(=O)N[C@@H](Cc1c[nH]c2ccccc12)C(=O)N[C@@H](CC(C)C)C(=O)N[C@H](C(=O)N[C@@H](C)C(=O)NCC(=O)NCC(=O)N1CCC[C@H]1C(=O)N[C@@H](CO)C(=O)N[C@@H](CO)C(=O)NCC(=O)N[C@@H](C)C(=O)N1CCC[C@H]1C(=O)N1CCC[C@H]1C(=O)N1CCC[C@H]1C(=O)N[C@@H](CO)C(N)=O)[C@@H](C)CC)C(C)C)[C@@H](C)CC [Compound 1]
glucose lowering effect ([1]; 3 nM/kg and 20 nM/kg s.c.): dose dependent improvement in glucose lowering effect upto 72 hours
glucose lowering effect compared with tirzepatide ([1]; 3 nM/kg and 20 nM/kg s.c.): superior to tirzepatide at similar dosage
Cumulative Food Intake (g), 0-72 hr, Mean ([1]; 3 nM/kg s.c.): 10.2*** g
Delta Blood Glucose (mM) Mean ([1]; 3 nM/kg s.c., 0 hr (baseline)): 0.0 mM
Delta Blood Glucose (mM) Mean ([1]; 3 nM/kg s.c., 4 hr): −8.9*** mM
Delta Blood Glucose (mM) Mean ([1]; 3 nM/kg s.c., 24 hr): −9.9*** mM
Delta Blood Glucose (mM) Mean ([1]; 3 nM/kg s.c., 48 hr): −5.8** mM
Body weight change (%) 72 hr vs. Baseline, Mean ([1]; 3 nM/kg s.c., 72 hr): −4.0*** %
Delta Blood Glucose (mM) Mean ([1]; 3 nM/kg s.c., 72 hr): -3.2 mM
Cumulative Food Intake (g), 0-72 hr, Mean ([1]; 20 nM/kg s.c.): 6.3*** g
Delta Blood Glucose (mM) Mean ([1]; 20 nM/kg s.c., 0 hr (baseline)): 0.0 mM
Delta Blood Glucose (mM) Mean ([1]; 20 nM/kg s.c., 4 hr): −13.7*** mM
Delta Blood Glucose (mM) Mean ([1]; 20 nM/kg s.c., 24 hr): −13.6*** mM
Delta Blood Glucose (mM) Mean ([1]; 20 nM/kg s.c., 48 hr): −14.0*** mM
Body weight change (%) 72 hr vs. Baseline, Mean ([1]; 20 nM/kg s.c., 72 hr): −6.2*** %
Delta Blood Glucose (mM) Mean ([1]; 20 nM/kg s.c., 72 hr): −7.9*** mM
effect on body weight ([1]; 3 and 20 nM/kg): significant, dose dependent and comparable to tirzepatide
effect on food intake ([1]; 3 and 20 nM/kg): significant, dose dependent and comparable to tirzepatide
Cumulative food Intake (g) 0-48 hr. vs. Baseline, Mean [2, 3]: 7.5*** g
Cumulative food Intake (g) 0-96 hr. vs. Baseline, Mean [2, 3]: 13.9*** g
Delta Blood Glucose (mM) Mean ([2]; Study 1, db/db mice, 10 nM/kg s.c., 0 hr (baseline)): 0 mM
Delta Blood Glucose (mM) Mean ([2]; Study 1, db/db mice, 10 nM/kg s.c., 4 hr): −12.7*** mM
Delta Blood Glucose (mM) Mean ([2]; Study 1, db/db mice, 10 nM/kg s.c., 8 hr): −12.0*** mM
Delta Blood Glucose (mM) Mean ([2]; Study 1, db/db mice, 10 nM/kg s.c., 12 hr): −10.5*** mM
Delta Blood Glucose (mM) Mean ([2]; Study 1, db/db mice, 10 nM/kg s.c., 24 hr): −15.5*** mM
Body Wt. Change (%) 48 hr. vs. Baseline, Mean [2, 4]: −5.1*** %
Delta Blood Glucose (mM) Mean [2, 4]: −6.7*** mM
Delta Blood Glucose (mM) Mean ([2]; Study 1, db/db mice, 10 nM/kg s.c., 72 hr): −4.3*** mM
Body Wt. Change (%) 96 hr. vs. Baseline, Mean [2, 5]: −4.2*** %
Delta Blood Glucose (mM) Mean [2, 5]: −2.2*** mM
Cumulative food Intake (g) 0-48 hr. vs. Baseline, Mean [2, 6]: 3.8*** g
Cumulative food Intake (g) 0-96 hr. vs. Baseline, Mean [2, 6]: 12.5*** g
Delta Blood Glucose (mM) Mean ([2]; Study 2, db/db mice, 10 nM/kg s.c. single dose, 0 hr (baseline)): 0 mM
Delta Blood Glucose (mM) Mean ([2]; Study 2, db/db mice, 10 nM/kg s.c. single dose, 4 hr): −10.0*** mM
Delta Blood Glucose (mM) Mean ([2]; Study 2, db/db mice, 10 nM/kg s.c. single dose, 8 hr): −13.5*** mM
Delta Blood Glucose (mM) Mean ([2]; Study 2, db/db mice, 10 nM/kg s.c. single dose, 12 hr): −12.3*** mM
Delta Blood Glucose (mM) Mean ([2]; Study 2, db/db mice, 10 nM/kg s.c. single dose, 24 hr): −11.5*** mM
Body Wt. Change (%) 48 hr. vs. Baseline, Mean [2, 7]: −5.1*** %
Delta Blood Glucose (mM) Mean [2, 7]: −7.9*** mM
Delta Blood Glucose (mM) Mean ([2]; Study 2, db/db mice, 10 nM/kg s.c. single dose, 72 hr): −4.3** mM
Body Wt. Change (%) 96 hr. vs. Baseline, Mean [2, 8]: −3.5*** %
Delta Blood Glucose (mM) Mean [2, 8]: -1.4 mM
effect on blood glucose reduction compared with tirzepatide ([2]; db/db mice, 10 nM/kg s.c., same concentration as tirzepatide): superior to tirzepatide
blood glucose reduction [2, 9]: statistically significant blood glucose reduction upto 96 hr post treatment
body weight reduction [2, 9]: statistically significant body weight reduction which was comparable to tirzepatide
reduction in food consumption [2, 9]: significant reduction in food consumption which was comparable to tirzepatide

Tirzepatide [reference compound]
Cumulative Food Intake (g), 0-72 hr, Mean ([1]; 3 nM/kg s.c.): 9.6*** g
Body weight change (%) 72 hr vs. Baseline, Mean ([1]; 3 nM/kg s.c., 72 hr): −3.4*** %
Cumulative Food Intake (g), 0-72 hr, Mean ([1]; 20 nM/kg s.c.): 8.4*** g
Body weight change (%) 72 hr vs. Baseline, Mean ([1]; 20 nM/kg s.c., 72 hr): −4.9*** %
Cumulative food Intake (g) 0-48 hr. vs. Baseline, Mean [2, 3]: 4.9*** g
Cumulative food Intake (g) 0-96 hr. vs. Baseline, Mean [2, 3]: 13.0*** g
Body Wt. Change (%) 48 hr. vs. Baseline, Mean [2, 4]: −4.2*** %
Body Wt. Change (%) 96 hr. vs. Baseline, Mean [2, 5]: −2.8*** %
